Literature values in PubChem BioAssay AID1259410 (Chemical Carcinogenesis Research Information System (CCRIS), 2018).

System: rodent tumor promotion studies, tumor incidence
Experiment: CCRIS tumor promotion studies
[1] = Carcinogen: 7,12-DIMETHYLBENZ(A)ANTHRACENE, Doses [Carcinogen]: TOP, Route [Carcinogen]: DERMAL, Route [Promoter]: DERMAL, Species: MOUSE, Strain/Sex: FEMALE

COc1c(N2C[C@@H]3CCCN[C@@H]3C2)c(F)cc2c(=O)c(C(=O)O)cn(C3CC3)c12
outcome (Carcinogen: N-METHYL-N-NITROSOUREA, 684-93-5, Doses [Carcinogen]: 4.5 MG/KG BW 1/WK FOR FIRST 10 WK, Doses [Promoter]: 0, 500 MG/KG BW/D FOR 24 WK BEGINNING 14 WK POST CARCINOGEN FIRST DOSE (STUDY DURATION: 38 WK), Route [Carcinogen]: GAVAGE, Route [Promoter]: GAVAGE, Species: RAT, Strain/Sex: WISTAR/MALE, FEMALE): forestomach: squamous cell papilloma, glandular stomach adenocarcinoma

Cc1cc(=O)n(-c2ccccc2)n1C
outcome (Carcinogen: DIHYDROXY-DI-N-PROPYLNITROSAMINE, 53609-64-6, URACIL, 66-22-8, Carcinogen: DIHYDROXY-DI-N-PROPYLNITROSAMINE, 53609-64-6, URACIL, 66-22-8, Doses [Carcinogen]: 1% DHPN IN DRINKING WATER AND 3% URACIL IN DIET FOR 4 WK, Doses [Promoter]: 0, 1% IN DIET BEGINNING 1 WK POST CARCINOGEN TREATMENT AND CONTINUING FOR 35 WK (STUDY DURATION: 40 WK), Route [Carcinogen]: ORAL, ORAL, Route [Promoter]: ORAL, Species: RAT, Strain/Sex: F344/MALE): kidney: adenoma or adenocarcinoma

CCOC(N)=O
outcome (Carcinogen: 7,12-DIMETHYLBENZ(A)ANTHRACENE, 57-97-6, Doses [Carcinogen]: 51.2 UG IN 100 UG ACETONE ONCE, Doses [Promoter]: 0, 10% IN ACETONE 2/WK FOR 50 WK BEGINNING 2 WK POST CARCINOGEN DOSE (STUDY DURATION: 52 WK), Route [Carcinogen]: DERMAL, Route [Promoter]: DERMAL, Species: MOUSE, Strain/Sex: HR/HR/MALE,FEMALE): skin: papilloma

C/C=C(\C(=C/C)c1ccc(O)cc1)c1ccc(O)cc1
outcome (Carcinogen: IRRADIATION, Doses [Carcinogen]: 260 CGY GAMMA RAYS AT DAY 20 OF PREGNANCY, Doses [Promoter]: 0, 0.376 UG/D RELEASED FROM PELLET IMPLANTED AFTER NURSING DISCONTINUED, PELLET REPLACED EVERY 8 WK (STUDY DURATION: 1 Y, Route [Carcinogen]: DERMAL, Route [Promoter]: IMPLANT, Species: RAT, Strain/Sex: WISTAR/FEMALE): mammary gland: tumor

Oc1ccc(Cl)cc1
outcome [1]: integumentary system (skin)

O=C1OC(O)C(C(Cl)Cl)=C1Cl (configuration not stated)
outcome (Carcinogen: N-METHYL-N'-NITRO-N-NITROSOGUANIDINE [70-25-7], SODIUM CHLORIDE [7647-14-5], Doses [Carcinogen]: 100 PPM MNNG IN DRINKING WATER FOR 8 WK, 5% SODIUM CHLORIDE IN DIET FOR 8 WK (STUDY DURATION: 65 WK), Doses [Promoter]: 30 PPM IN DRINKING WATER FOR 53 WK BEGINNING POST LAST CARCINOGEN DOSE (STUDY DURATION: 65 WK), Route [Carcinogen]: ORAL, ORAL, Route [Promoter]: ORAL, Species: RAT, Strain/Sex: WISTAR/MALE): glandular stomach: adenocarcinoma

Nc1nc2ncc(CNc3ccc(C(=O)N[C@@H](CCC(=O)O)C(=O)O)cc3)nc2c(=O)[nH]1
outcome (Carcinogen: N-ETHYL-N-(2-HYDROXYETHYL)NITROSAMINE, Doses [Carcinogen]: 0.1% IN DRINKING WATER FOR 1 WK, Doses [Promoter]: 300 MG/KG 1/WK FOR 8 WK THEN 100 MG/KG 1/WK FOR 27 WK, Route [Carcinogen]: ORAL, Route [Promoter]: SUBCUTANEOUS, Species: RAT, Strain/Sex: F344/MALE): kidney: renal cell tumor

CCCCCC1(CCCCCC(=O)OC23C(OC(C)=O)C(C)C4(O)C(C=C(CO)CC5(O)C(=O)C(C)=CC54)C2C3(C)C)OCC(C)(C)N1[O] (configuration not stated)
outcome (Carcinogen: 7,12-DIMETHYLBENZ[A]ANTHRACENE, 57-97-6, Doses [Carcinogen]: 100 NMOL ONCE, Doses [Promoter]: 0, 20 NMOL 2/WK FOR 24 WK BEGINNING 1 WK POST CARCINOGEN DOSE (STUDY DURATION: 25 WK), Route [Carcinogen]: DERMAL, Route [Promoter]: DERMAL, Species: MOUSE, Strain/Sex: NMRI/FEMALE): skin: tumor

CC(=O)Nc1ccc2c(c1)C(O)c1ccccc1-2 (configuration not stated)
outcome (Carcinogen: DIETHYLNITROSAMINE, 55-18-5, Doses [Carcinogen]: 200 MG/KG BW IN 0.9% SALINE ONCE, Doses [Promoter]: 0, 0.1 MMOL/KG BW IN POLYETHYLENE GLYCOL FOR 5 D BEGINNING 1 WK POST CARCINOGEN DOSE, 70% HEPATECTOMY PERFORMED 3 D AFTE, Route [Carcinogen]: INTRAPERITONEAL, Route [Promoter]: GAVAGE, Species: RAT, Strain/Sex: SPRAGUE-DAWLEY/MALE): liver: hepatocellular carcinoma

CCC(C(=O)NC(N)=O)c1ccccc1 (configuration not stated)
outcome (Carcinogen: N-NITROSODIETHYLAMINE, 55-18-5, Doses [Carcinogen]: 75 MG IN STERILE SALINE ONCE, Doses [Promoter]: 0, 444 PPM IN DIET BEGINNING 2 WK POST CARCINOGEN DOSE AND CONTINUING FOR DURATION OF STUDY (STUDY DURATION: 78 WK), Route [Carcinogen]: INTRAPERITONEAL, Route [Promoter]: ORAL, Species: RAT, Strain/Sex: F344/MALE): liver: hepatocellular adenoma

[Cl][Cd][Cl]
outcome (Carcinogen: 3,2'-DIMETHYL-4-AMINOBIPHENYL, 13394-86-0, Doses [Carcinogen]: 50 MG/KG BW IN 0.5 ML CORN OIL 1/2 WK FOR 20 WK, Doses [Promoter]: 0, 10 UMOL/KG BW IN SALINE ONCE AT WK 20 (STUDY DURATION: 60 WK), Route [Carcinogen]: SUBCUTANEOUS, Route [Promoter]: INTRAMUSCULAR, Species: RAT, Strain/Sex: F344/MALE): ventral prostate: carcinoma | outcome (Carcinogen: 3,2'-DIMETHYL-4-AMINOBIPHENYL, 13394-86-0, Doses [Carcinogen]: 50 MG/KG BW IN 0.5 ML CORN OIL 1/2 WK FOR 20 WK, Doses [Promoter]: 0, 10 UMOL/KG BW IN SALINE ONCE AT WK 20 AND 0, 5 UMOL/KG BW ONCE AT WK 40 (STUDY DURATION: 60 WK), Doses [Promoter]: 0, 10 UMOL/KG BW IN SALINE ONCE AT WK 20 AND 0, 5 UMOL/KG BW ONCE AT WK 40 (STUDY DURATION: 60 WK), Route [Carcinogen]: SUBCUTANEOUS, Route [Promoter]: INTRAMUSCULAR, Species: RAT, Strain/Sex: F344/MALE): ventral prostate: carcinoma

ClC1(Cl)C2(Cl)C3(Cl)C4(Cl)C(Cl)(Cl)C5(Cl)C3(Cl)C1(Cl)C5(Cl)C24Cl (configuration not stated)
outcome (Carcinogen: 7,12-DIMETHYLBENZ[A]ANTHRACENE, 57-97-6, Doses [Carcinogen]: 200 NMOL IN 200 µL ACETONE ONCE, Doses [Promoter]: 0, 25, 50, 100, 200 NMOL IN 200 µL ACETONE 3/WK FOR 20 WK (STUDY DURATION: 20 WK), Doses [Promoter]: 0, 25, 50, 100, 200 NMOL IN 200 µL ACETONE 3/WK FOR 20 WK (STUDY DURATION: 20 WK), Route [Carcinogen]: DERMAL, Route [Promoter]: DERMAL, Species: MOUSE, Strain/Sex: CD-1/FEMALE): skin: tumor | outcome (Carcinogen: 7,12-DIMETHYLBENZ[A]ANTHRACENE, 57-97-6, Doses [Carcinogen]: 200 NMOL IN 200 µL ACETONE ONCE, Doses [Promoter]: 0, 25, 50, 100 NMOL IN 200 µL ACETONE 3/WK FOR 34 WK (STUDY DURATION: 34 WK), Doses [Promoter]: 0, 25, 50, 100 NMOL IN 200 µL ACETONE 3/WK FOR 34 WK (STUDY DURATION: 34 WK), Route [Carcinogen]: DERMAL, Route [Promoter]: DERMAL, Species: MOUSE, Strain/Sex: CD-1/FEMALE): skin: tumor | outcome (Carcinogen: 7,12-DIMETHYLBENZ[A]ANTHRACENE, 57-97-6, Doses [Carcinogen]: 200 NMOL IN 200 µL ACETONE ONCE, Doses [Promoter]: 0, 200 NMOL IN 200 µL ACETONE 2/WK FOR 20 WK BEGINNING 1 WK POST CARCINOGEN DOSE (STUDY DURATION: 21 WK), Route [Carcinogen]: DERMAL, Route [Promoter]: DERMAL, Species: MOUSE, Strain/Sex: CD-1/FEMALE): skin: tumors | outcome (Carcinogen: 7,12-DIMETHYLBENZ[A]ANTHRACENE, 57-97-6, Doses [Carcinogen]: 200 NMOL IN 200 µL ACETONE ONCE, Doses [Promoter]: 0, 200 NMOL IN 200 µL ACETONE 3/WK FOR 20 WK BEGINNING 1 WK POST CARCINOGEN DOSE (STUDY DURATION: 21 WK), Route [Carcinogen]: DERMAL, Route [Promoter]: DERMAL, Species: MOUSE, Strain/Sex: CD-1/FEMALE): skin: tumors | outcome (Carcinogen: 7,12-DIMETHYLBENZ[A]ANTHRACENE, 57-97-6, Doses [Carcinogen]: 200 NMOL IN 200 µL ACETONE ONCE, Doses [Promoter]: 0, 200 NMOL IN 200 µL ACETONE 3/WK FOR 20 WK BEGINNING 1 WK POST CARCINOGEN DOSE (STUDY DURATION: 21 WK), Route [Carcinogen]: DERMAL, Route [Promoter]: DERMAL, Species: MOUSE, Strain/Sex: CD-1/MALE): skin: tumors | outcome (Carcinogen: 7,12-DIMETHYLBENZ[A]ANTHRACENE, 57-97-6, Doses [Carcinogen]: 200 NMOL IN 200 µL ACETONE ONCE, Doses [Promoter]: 0, 200 NMOL IN 200 µL ACETONE 3/WK FOR 20 WK BEGINNING 4 WK POST CARCINOGEN DOSE ADMINISTERED TO OVARIECTOMIZED MICE (ST, Route [Carcinogen]: DERMAL, Route [Promoter]: DERMAL, Species: MOUSE, Strain/Sex: CD-1/FEMALE): skin: tumors

Oc1c(Cl)c(Cl)c(Cl)c(Cl)c1Cl
outcome (Carcinogen: DIETHYLNITROSAMINE [55-18-5], Doses [Carcinogen]: 20 PPM IN DRINKING WATER FOR 13 WEEKS (STUDY DURATION: 42 WK), Doses [Promoter]: 300 PPM IN DIET FOR 25 WK BEGINNING 4 WK POST LAST CARCINOGEN DOSE (STUDY DURATION: 42 WK), Route [Carcinogen]: ORAL, Route [Promoter]: ORAL, Species: MOUSE, Strain/Sex: B6C3F1/MALE): liver: adenoma or carcinoma | outcome (Carcinogen: DIETHYLNITROSAMINE [55-18-5], Doses [Carcinogen]: 20 PPM IN DRINKING WATER FOR 13 WEEKS (STUDY DURATION: 42 WK), Doses [Promoter]: 600 PPM IN DIET FOR 25 WK BEGINNING 4 WK POST LAST CARCINOGEN DOSE (STUDY DURATION: 42 WK), Route [Carcinogen]: ORAL, Route [Promoter]: ORAL, Species: MOUSE, Strain/Sex: B6C3F1/MALE): liver: adenoma or carcinoma

CCCCCCCCCCCCCC
outcome [1]: integumentary system (skin) | outcome (Carcinogen: BENZO(A)PYRENE, Doses [Carcinogen]: TOP, Route [Carcinogen]: DERMAL, Route [Promoter]: DERMAL, Species: MOUSE, Strain/Sex: FEMALE): integumentary system (skin)
